The values that follow come from patent publication US9580444B2, “Polycyclic pyrazolinone derivative and herbicide comprising same as effective component thereof” (priority 2013, dated 2017).

What all share (type): in vivo
Data set [1] has as its system Cyperus difformis (smallflower umbrella plant). The data set is described as follows: Test Example-1: herbicidal effect by a treatment before weeds are generated under submerged conditions. As to conditions: 500 g a.i/ha, pre-emergence treatment, about 15 days after treatment, score 0-5. Put shortly: (§1)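 Pre-emergence, submerged paddy soil; WP/EC formulation diluted, applied to floodwater at seeding day at predetermined dose; visual herbicidal score 0–5 at ~15 days after treatment.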

Data set [2] deals with Echinochloa oryzicola (barnyard grass). The description is as above. As to conditions: 500 g a.i/ha, pre-emergence treatment, about 15 days after treatment, score 0-5. Put shortly:
as §1

For data set [3], the system named is Eleocharis acicularis (needle spikerush). The description is as above. As to conditions: 500 g a.i/ha, pre-emergence treatment, about 15 days after treatment, score 0-5. The method, boiled down: as §1
In data set [4] the test system is Monochoria vaginalis (monochoria). Described as above. As to conditions: 500 g a.i/ha, pre-emergence treatment, about 15 days after treatment, score 0-5. The method, boiled down:
as §1

The test system of data set [5] is Scirpus juncoides (bulrush). The description is as above. As to conditions: 500 g a.i/ha, pre-emergence treatment, about 15 days after treatment, score 0-5. The method, boiled down:
as §1

Data set [6] has as its system other annual broad leaf weeds (Lindernia procumbens, Rotala indica, Elatine triandra). The description is as above. As to conditions: 500 g a.i/ha, pre-emergence treatment, about 15 days after treatment, score 0-5. Put shortly: as §1
Data set [7] concerns Abutilon theophrasti (velvetleaf). The data set is described as follows: Test Example-4: herbicidal effect by a foliage treatment after weeds are generated under upland field conditions. As to conditions: 500 g a.i/ha, foliage treatment after emergence, about 14 days after treatment, score 0-5. The method, boiled down:
(§2)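 Upland soil; seeds covered ~0.5 cm, grown 14 d. Foliar spray of diluted WP or EC, predetermined dose, 4000 L water/ha. Herbicidal effect and corn phytotoxicity scored on a six-stage 0–5 scale ~14 d post-treatment.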

Data set [8] relates to Amaranthus viridis (green amaranthus). The data set is described as above. Conditions: 500 g a.i/ha, foliage treatment after emergence, about 14 days after treatment, score 0-5. Put shortly:
as §2

In data set [9] the test system is Chenopodium album (common lambsquarters). The description is as above. As to conditions: 500 g a.i/ha, foliage treatment after emergence, about 14 days after treatment, score 0-5. The method, boiled down:
as §2

The test system of a further data set is corn. The data set is described as follows: Test Example-4: phytotoxicity by a foliage treatment after weeds are generated under upland field conditions. Conditions: 500 g a.i/ha, foliage treatment after emergence, about 14 days after treatment, score 0-5. Put shortly: as §2

Structures are written as SMILES.

For `O=c1c(-c2cc(OCC3CC3)c(Cl)cc2F)c(Cl)n2n1CCCC2` [Example 1-176], in [1], the “Herbicidal effect Cyperus difformis” value is 5 (Herbicidal effect/phytotoxicity was 90% or greater). In data set [2], the “Herbicidal effect Echinochloa oryzicola” value is 5 (Herbicidal effect/phytotoxicity was 90% or greater). Further, the “Herbicidal effect Eleocharis acicularis” value in data set [3] was 5 (Herbicidal effect/phytotoxicity was 90% or greater). Further, in [4], the “Herbicidal effect Monochoria vaginalis” value is listed as 5 (Herbicidal effect/phytotoxicity was 90% or greater). Moreover, the “Herbicidal effect Scirpus juncoides” value in data set [5] is recorded as 5 (Herbicidal effect/phytotoxicity was 90% or greater). For the same compound, the “Herbicidal effect Broadleaf weed” value in data set [6] is on record as 5 (Herbicidal effect/phytotoxicity was 90% or greater). Moreover, the “Herbicidal effect Abutilon theophrast” value in data set [7] is on record as 5 (Herbicidal effect/phytotoxicity was 90% or greater). In addition, in data set [8], the “Herbicidal effect Amaranthus viridis” value was 5 (Herbicidal effect/phytotoxicity was 90% or greater). Further, the “Herbicidal effect Chenopodium album” value in data set [9] is 5 (Herbicidal effect/phytotoxicity was 90% or greater). In addition, in the data set on corn, the “Phytotoxicity Corn” value is given as 2 (Herbicidal effect/phytotoxicity was 30% to 50%).
On to `C#CCOc1cc(-c2c(F)n3n(c2=O)CCOCC3)c(Cl)cc1Cl` [Example 1-364], for which, in data set [1], the “Herbicidal effect Cyperus difformis” value is reported as 5 (Herbicidal effect/phytotoxicity was 90% or greater). For the same compound, the “Herbicidal effect Echinochloa oryzicola” value in data set [2] is on record as 5 (Herbicidal effect/phytotoxicity was 90% or greater). Further, the “Herbicidal effect Eleocharis acicularis” value in [3] is 5 (Herbicidal effect/phytotoxicity was 90% or greater). The “Herbicidal effect Monochoria vaginalis” value in data set [4] is on record as 5 (Herbicidal effect/phytotoxicity was 90% or greater). In data set [5], the “Herbicidal effect Scirpus juncoides” value was 5 (Herbicidal effect/phytotoxicity was 90% or greater). Moreover, the “Herbicidal effect Broadleaf weed” value in [6] is reported as 5 (Herbicidal effect/phytotoxicity was 90% or greater). Moreover, in [7], the “Herbicidal effect Abutilon theophrast” value is reported as 5 (Herbicidal effect/phytotoxicity was 90% or greater). Further, the “Herbicidal effect Amaranthus viridis” value in data set [8] is 5 (Herbicidal effect/phytotoxicity was 90% or greater). In addition, the “Herbicidal effect Chenopodium album” value in [9] is 5 (Herbicidal effect/phytotoxicity was 90% or greater). In addition, in the data set on corn, the “Phytotoxicity Corn” value is given as 1 (Herbicidal effect/phytotoxicity was 10% to 30%).
`O=c1c(-c2cc(OCC=Cc3ccc(F)cc3)c(Cl)cc2F)c(Cl)n2n1CCCC2` [Example 1-226]: the “Herbicidal effect Cyperus difformis” value in data set [1] was 5 (Herbicidal effect/phytotoxicity was 90% or greater). In addition, the “Herbicidal effect Echinochloa oryzicola” value in data set [2] is 5 (Herbicidal effect/phytotoxicity was 90% or greater). Besides, the “Herbicidal effect Eleocharis acicularis” value in data set [3] is 5 (Herbicidal effect/phytotoxicity was 90% or greater). Also, the “Herbicidal effect Monochoria vaginalis” value in [4] is 5 (Herbicidal effect/phytotoxicity was 90% or greater). For the same compound, the “Herbicidal effect Scirpus juncoides” value in [5] is 5 (Herbicidal effect/phytotoxicity was 90% or greater). The “Herbicidal effect Broadleaf weed” value in [6] was 5 (Herbicidal effect/phytotoxicity was 90% or greater). Besides, the “Herbicidal effect Abutilon theophrast” value in data set [7] is reported as 5 (Herbicidal effect/phytotoxicity was 90% or greater). Also, the “Herbicidal effect Amaranthus viridis” value in data set [8] is listed as 5 (Herbicidal effect/phytotoxicity was 90% or greater). In addition, the “Herbicidal effect Chenopodium album” value in data set [9] was 5 (Herbicidal effect/phytotoxicity was 90% or greater). For the same compound, the “Phytotoxicity Corn” value in the data set on corn is listed as 3 (Herbicidal effect/phytotoxicity was 50% to 70%).
Turning to `C=CCOc1cc(-c2c(Cl)n3n(c2=O)CCCC3)c(F)cc1F` [Example 1-101], the “Herbicidal effect Cyperus difformis” value in data set [1] was 5 (Herbicidal effect/phytotoxicity was 90% or greater). In addition, in data set [2], the “Herbicidal effect Echinochloa oryzicola” value is reported as 5 (Herbicidal effect/phytotoxicity was 90% or greater). Besides, in data set [3], the “Herbicidal effect Eleocharis acicularis” value is reported as 5 (Herbicidal effect/phytotoxicity was 90% or greater). Moreover, the “Herbicidal effect Monochoria vaginalis” value in [4] is reported as 5 (Herbicidal effect/phytotoxicity was 90% or greater). Besides, in [5], the “Herbicidal effect Scirpus juncoides” value is recorded as 5 (Herbicidal effect/phytotoxicity was 90% or greater). Also, in data set [6], the “Herbicidal effect Broadleaf weed” value is listed as 5 (Herbicidal effect/phytotoxicity was 90% or greater). Moreover, the “Herbicidal effect Abutilon theophrast” value in data set [7] is recorded as 5 (Herbicidal effect/phytotoxicity was 90% or greater). Besides, the “Herbicidal effect Amaranthus viridis” value in data set [8] is on record as 5 (Herbicidal effect/phytotoxicity was 90% or greater). Also, the “Herbicidal effect Chenopodium album” value in data set [9] was 5 (Herbicidal effect/phytotoxicity was 90% or greater). In addition, in the data set on corn, the “Phytotoxicity Corn” value is recorded as 3 (Herbicidal effect/phytotoxicity was 50% to 70%).
As for `C#CCOc1cc(-c2c(Cl)n3n(c2=O)CCCC3)c(F)cc1F` [Example 1-113], in data set [1], the “Herbicidal effect Cyperus difformis” value is on record as 5 (Herbicidal effect/phytotoxicity was 90% or greater). In data set [2], the “Herbicidal effect Echinochloa oryzicola” value is 5 (Herbicidal effect/phytotoxicity was 90% or greater). The “Herbicidal effect Eleocharis acicularis” value in [3] was 5 (Herbicidal effect/phytotoxicity was 90% or greater). Also, the “Herbicidal effect Monochoria vaginalis” value in data set [4] is reported as 5 (Herbicidal effect/phytotoxicity was 90% or greater). For the same compound, the “Herbicidal effect Scirpus juncoides” value in data set [5] is 5 (Herbicidal effect/phytotoxicity was 90% or greater). Moreover, in [6], the “Herbicidal effect Broadleaf weed” value was 5 (Herbicidal effect/phytotoxicity was 90% or greater). Further, the “Herbicidal effect Abutilon theophrast” value in data set [7] is given as 5 (Herbicidal effect/phytotoxicity was 90% or greater). The “Herbicidal effect Amaranthus viridis” value in [8] is listed as 5 (Herbicidal effect/phytotoxicity was 90% or greater). Further, the “Herbicidal effect Chenopodium album” value in data set [9] is on record as 5 (Herbicidal effect/phytotoxicity was 90% or greater). For the same compound, the “Phytotoxicity Corn” value with corn is listed as 3 (Herbicidal effect/phytotoxicity was 50% to 70%).
Take `O=c1c(-c2ccc(Cl)c(OC3CCCC3)c2)c(Cl)n2n1CCCC2` [Example 1-52]: in data set [1], the “Herbicidal effect Cyperus difformis” value was 5 (Herbicidal effect/phytotoxicity was 90% or greater). For the same compound, the “Herbicidal effect Echinochloa oryzicola” value in data set [2] was 5 (Herbicidal effect/phytotoxicity was 90% or greater). Also, the “Herbicidal effect Eleocharis acicularis” value in data set [3] is given as 5 (Herbicidal effect/phytotoxicity was 90% or greater). The “Herbicidal effect Monochoria vaginalis” value in data set [4] is 5 (Herbicidal effect/phytotoxicity was 90% or greater). For the same compound, the “Herbicidal effect Scirpus juncoides” value in data set [5] was 5 (Herbicidal effect/phytotoxicity was 90% or greater). Further, in [6], the “Herbicidal effect Broadleaf weed” value was 5 (Herbicidal effect/phytotoxicity was 90% or greater). The “Herbicidal effect Abutilon theophrast” value in data set [7] is given as 5 (Herbicidal effect/phytotoxicity was 90% or greater). In addition, the “Herbicidal effect Amaranthus viridis” value in [8] is on record as 5 (Herbicidal effect/phytotoxicity was 90% or greater). For the same compound, in data set [9], the “Herbicidal effect Chenopodium album” value was 5 (Herbicidal effect/phytotoxicity was 90% or greater). The “Phytotoxicity Corn” value in the data set on corn is on record as 0 (Herbicidal effect/phytotoxicity was 0% to 10%).
As for `C#CC(C)Oc1cc(-c2c(Cl)n3n(c2=O)CCCC3)c(F)cc1F` (centres unmarked) [Example 1-114], the “Herbicidal effect Cyperus difformis” value in data set [1] is reported as 5 (Herbicidal effect/phytotoxicity was 90% or greater). In addition, the “Herbicidal effect Echinochloa oryzicola” value in data set [2] is 5 (Herbicidal effect/phytotoxicity was 90% or greater). In addition, the “Herbicidal effect Eleocharis acicularis” value in data set [3] is listed as 5 (Herbicidal effect/phytotoxicity was 90% or greater). In addition, the “Herbicidal effect Monochoria vaginalis” value in data set [4] was 5 (Herbicidal effect/phytotoxicity was 90% or greater). Moreover, the “Herbicidal effect Scirpus juncoides” value in [5] is 5 (Herbicidal effect/phytotoxicity was 90% or greater). In data set [6], the “Herbicidal effect Broadleaf weed” value is given as 5 (Herbicidal effect/phytotoxicity was 90% or greater). Besides, in [7], the “Herbicidal effect Abutilon theophrast” value was 5 (Herbicidal effect/phytotoxicity was 90% or greater). The “Herbicidal effect Amaranthus viridis” value in [8] is given as 5 (Herbicidal effect/phytotoxicity was 90% or greater). For the same compound, the “Herbicidal effect Chenopodium album” value in data set [9] is listed as 5 (Herbicidal effect/phytotoxicity was 90% or greater). Also, in the data set with corn, the “Phytotoxicity Corn” value is listed as 3 (Herbicidal effect/phytotoxicity was 50% to 70%).
Turning to `COCOc1cc(-c2c(Cl)n3n(c2=O)CCCC3)c(F)cc1F` [Example 1-90], the “Herbicidal effect Cyperus difformis” value in data set [1] is listed as 5 (Herbicidal effect/phytotoxicity was 90% or greater). Further, the “Herbicidal effect Echinochloa oryzicola” value in data set [2] is recorded as 5 (Herbicidal effect/phytotoxicity was 90% or greater). The “Herbicidal effect Eleocharis acicularis” value in data set [3] is 5 (Herbicidal effect/phytotoxicity was 90% or greater). In addition, in data set [4], the “Herbicidal effect Monochoria vaginalis” value is listed as 5 (Herbicidal effect/phytotoxicity was 90% or greater). For the same compound, the “Herbicidal effect Scirpus juncoides” value in data set [5] is given as 5 (Herbicidal effect/phytotoxicity was 90% or greater). For the same compound, the “Herbicidal effect Broadleaf weed” value in data set [6] is listed as 5 (Herbicidal effect/phytotoxicity was 90% or greater). Besides, in data set [7], the “Herbicidal effect Abutilon theophrast” value is given as 5 (Herbicidal effect/phytotoxicity was 90% or greater). In addition, the “Herbicidal effect Amaranthus viridis” value in [8] is 5 (Herbicidal effect/phytotoxicity was 90% or greater). Besides, the “Herbicidal effect Chenopodium album” value in data set [9] is reported as 5 (Herbicidal effect/phytotoxicity was 90% or greater). The “Phytotoxicity Corn” value in the data set with corn is 3 (Herbicidal effect/phytotoxicity was 50% to 70%).
